According to patent publication US20080234130A1, “Compositions providing tolerance to multiple herbicides and methods of use thereof” (priority 2005, published 2008):

Experiments:
[1] = tested on: heterozygous GAT-HRA corn; test: Preemergence effect of ALS herbicides (fresh weight, visual injury); settings: 200 g/ha, 4 weeks after treatment, 0% no injury, 100% plant death, mean of four replications
[2] = tested on: untransformed Coker 312 cotton; test: Greenhouse over the top herbicide spray of cotton; type: in vivo, Gossypium hirsutum
Source text: (§1) Transformed cotton plants were rooted and then transferred to soil for further growth. Plants were then subjected to herbicide spray treatments in a greenhouse. […] Untransformed Coker 312 control plants were dead 2 weeks after glyphosate application. […] Plants transformed with both GAT and HRA were further subjected to an “over the top” application of the sulfonylurea herbicide rimsulfuron at a rate of 16 g active ingredient/hectare. […] In further experiments 32 g ai/ha rimsulfuron were applied to the cotton.

[3] = tested on: GAT-HRA transgenic cotton plants; test: Greenhouse over the top herbicide spray of cotton; type: in vivo, Gossypium hirsutum
Source text: as §1

[4] = tested on: parent elite stiff stalk inbred corn; test: Preemergence effect of ALS herbicides (fresh weight, visual injury); settings: 200 g/ha, 4 weeks after treatment, 0% no injury, 100% plant death, mean of four replications
[5] = tested on: parent elite stiff stalk inbred corn; test: Postemergence effect of ALS herbicides, glyphosate and glufosinate (fresh weight, visual injury); settings: 200 g/ha (glyphosate 3472 g ae/ha, glufosinate ammonium 1870 g/ha), mean of four replications; for % Visual Injury Parent elite stiff stalk inbred: 2 weeks after treatment, 0% no injury, 100% plant death
[6] = tested on: heterozygous GAT-HRA corn; test: as above; settings: 200 g/ha (glyphosate 3472 g ae/ha, glufosinate ammonium 1870 g/ha), mean of four replications; for % Visual Injury Heterozygous GAT-HRA: 2 weeks after treatment, 0% no injury, 100% plant death
[7] = tested on: non-glyphosate resistant Conyza (Welgevallen-paraquat resistant); test: Control of hairy fleabane by glyphosate, metsulfuron-methyl and two additives (Table 24); type: in vivo, Conyza bonariensis
Method: This example included the same treatments as used in Example 11, except the treatments were carried out on a glyphosate sensitive biotype of Kleinskraalhans (Conyza bonariensis).
• Biotype: Non-glyphosate resistant Conyza (Welgevallen-paraquat resistant) • Growth Stage: 10-15 leaf stage • Conditions: Cool and sunny • Volume rate: 200 L ha^−1 • glyphosate (ROUNDUP): 360 g a.i. L^−1

[8] = tested on: non-glyphosate resistant ryegrass (70-04); test: Control of ryegrass by glyphosate, metsulfuron-methyl and two additives (Table 23); type: in vivo
Method: The example was conducted on non-glyphosate resistant ryegrass. As provided in Table 23, all treatments that included glyphosate [180 g a.i. L ha^−1 (0.5 L glyphosate (SCAT®))] plus metsulfuron-methyl (BRUSH-OFF®) (5 and 10 g ha^−1) gave 100% control of the ryegrass.
• Biotype: non-glyphosate resistant ryegrass (70-04) • Population profile: Rup 0.25 control (%) 6.25 • Rup 0.5 control (%) 81.25 • Rup 1.0 control (%) 93.75 • Growth Stage: 5-6 leaf stage • Conditions: hot and sunny • Volume rate: 200 L ha^−1

[9] = tested on: Fairview (Tulbagh) ryegrass resistant to glyphosate, paraquat, and ACCase-inhibitors; test: Control of resistant ryegrass by glyphosate, metsulfuron-methyl and two additives (Table 25); type: in vivo; settings: Trial 1: glyphosate (ROUNDUP) 0.5 L/ha
Method: This example was conducted on one of the most resistant ryegrass types in the world, ryegrass resistant to non-selective herbicides, e.g., Fairview (Tulbagh), which is resistant to glyphosate, paraquat, and ACCase-inhibitors. In this example, the addition of metsulfuron-methyl (BRUSH-OFF®) at 5 and 10 g ha^−1, with 1% ammonium sulfate-based adjuvant (ADD-UP®) to 0.5 L Roundup improved control by 44% (e.g., 50% to 94%).
• Biotype: Fairview (Tulbagh) resistant to glyphosate, paraquat, and ACCase-inhibitors. • Growth Stage: 10-15 leaf stage • Conditions: Cool and sunny • 15 Volume rate: 200 L ha^−1 • glyphosate (ROUNDUP): 360 g ai L^−1

[10] = tested on: GAT-HRA soybeans; test: Postemergence greenhouse spray of soybeans, visual injury (Table 11); settings: 8960 g/ha
Method: (§2) Young regenerated transgenic plants were sprayed with 1× glyphosate (1× rate of glyphosate is 1120 g/ha of glyphosate isopropylamine) to cull segregants. Four replications were performed for each treatment. Plants were then treated with various herbicides, including glyphosate and ALS-inhibitor herbicides.
(§3) Six soybean seeds from each variety to be assayed were planted 1 cm deep in 5.5 (13.97 cm) inch square plastic container of a synthetic growth medium. […] When possible, containers were thinned to two uniform plants. Non-transgenic lines were thinned to two uniform plants per container.
(§4) Results are expressed below in Table 11 as the mean of four replications.

[11] = tested on: non-transgenic control soybeans; test: as above; settings: 8960 g/ha
Method: as §2, §3, §4

[12] = tested on: infected GS3 embryos with the GAT construct; test: Glyphosate selection of embryos infected with the GAT construct; type: cell-based, maize; settings: media with 1.0 mM or 2.0 mM glyphosate, about 40 days culture
Method: (§5) A glyphosate kill curve was established by testing non-transformed embryos response on media with different levels of glyphosate. GS3 embryos were isolated from an immature ear and placed onto media containing glyphosate at 0.0, 0.5, 1.0, and 2.0 mM. After about 40 days culture, the response of the embryos were observed and recorded. Similarly, infected GS3 embryos with the GAT construct were placed onto media containing glyphosate at 0.0, 0.5, 1.0, and 2.0 mM. After about 40 days culture, the response of the infected embryos were observed and recorded (FIG. 7).

[13] = tested on: non-transformed GS3 embryos; test: Glyphosate kill curve on culture media; type: cell-based, maize; settings: about 40 days culture
Method: as §5

[14] = tested on: Fairview (Tulbagh) ryegrass resistant to glyphosate, paraquat, and ACCase-inhibitors; test: Control of resistant ryegrass by glyphosate and representative SU's (Table 26); type: in vivo; settings: Trial 2: glyphosate (SCAT) 6 L/ha; sprayed with 1% ADD-UP
Source text: In this example, four different SU's were applied together with glyphosate (SCAT®) on the resistant ryegrass. The results as to the best SU partner for glyphosate were inconclusive, but the average benefit of applying an SU with glyphosate on herbicide resistant ryegrass was 39% (e.g., 34% control with glyphosate (SCAT®) only and 57-83% control with glyphosate (SCAT®) plus metsulfuron-methyl (BRUSH-OFF®), chlorsulfuron (GLEAN®), or triasulfuron (LOGRAN®)).
• Biotype: Fairview (Tulbagh) resistant to glyphosate, paraquat, and ACCase-inhibitors. • Growth Stage: 4 leaf stage • Conditions: Cool and sunny • Volume rate: 200 L ha^−1 • All treatments sprayed with 1% ADD-UP

[15] = Trial 2: metsulfuron-methyl (BRUSH-OFF) 5 g/ha
[16] = Trial 3: metsulfuron-methyl (BRUSH-OFF) 10 g/ha

## CCS(=O)(=O)c1cccnc1S(=O)(=O)NC(=O)Nc1nc(OC)cc(OC)n1 [Rimsulfuron, N-[[(4,6-dimethoxy-2-pyrimidinyl)amino]carbonyl]-3-(ethylsulfonyl)-2-pyridinesulfonamide]
[1]
  % Visual Injury Heterozygous GAT-HRA: 0%
[2]; rimsulfuron 16 g active ingredient/hectare, even in the absence of glyphosate
  damage of untransformed Coker 312 plants: severe damage
[3]; rimsulfuron 16 g active ingredient/hectare over the top after glyphosate 1.5 lb ae/acre, 14 days after rimsulfuron, 28 days after glyphosate
  transgenic plants with no deleterious symptoms from the dual herbicide application: approximately 35%
[4]
  % Visual Injury Patent elite stiff stalk inbred: 74%
[5]
  % Visual Injury Parent elite stiff stalk inbred: 91%
[6]
  % Visual Injury Heterozygous GAT-HRA: 10%

## COC(=O)c1ccccc1S(=O)(=O)NC(=O)Nc1nc(C)nc(OC)n1 [Metsulfuron-methyl (BRUSH-OFF ®)]
[7]; [15]
  Control (%): 100%
[7]; [16]
  Control (%): 100%
[8]; [15]
  Control (%): 0%
[8]; [16]
  Control (%): 0%

## O=C(O)CNCP(=O)(O)O [glyphosate (ROUNDUP ®)]
[9]
  Control (%): 50%
[7]; Trial 1: glyphosate (ROUNDUP) 0.5 L/ha
  Control (%): 12%

## O=C(O)CNCP(=O)(O)O [Glyphosate, N-phosphonomethylglycine]
[10]; Event # 59, Line # 21
  % Visual Injury: 40%
[10]; Event # 59, Line # 28
  % Visual Injury: 37%
[10]; Event # 59, mean
  % Visual Injury: 38%
[10]; Event # 60, Line # 07
  % Visual Injury: 19%
[10]; Event # 60, Line # 11
  % Visual Injury: 11%
[10]; Event # 60, Line # 22
  % Visual Injury: 11%
[10]; Event # 60, Line # 35
  % Visual Injury: 9%
[10]; Event # 60, Line # 41
  % Visual Injury: 13%
[10]; Event # 60, Line # 46
  % Visual Injury: 20%
[10]; Event # 60, Line # 70
  % Visual Injury: 9%
[10]; Event # 60, Line # 75
  % Visual Injury: 14%
[10]; Event # 60, Line # 77
  % Visual Injury: 19%
[10]; Event # 60, Line # 79
  % Visual Injury: 18%
[10]; Event # 60, Line # 82
  % Visual Injury: 20%
[10]; Event # 60, Line # 84
  % Visual Injury: 22%
[10]; Event # 60, mean
  % Visual Injury: 15%
[10]; Event # 61, Line # 02
  % Visual Injury: 10%
[10]; Event # 61, Line # 02B
  % Visual Injury: 10%
[10]; Event # 61, Line # 05
  % Visual Injury: 11%
[10]; Event # 61, Line # 14
  % Visual Injury: 10%
[10]; Event # 61, Line # 18
  % Visual Injury: 10%
[10]; Event # 61, Line # 24
  % Visual Injury: 60%
[10]; Event # 61, Line # 33
  % Visual Injury: 84%
[10]; Event # 61, Line # 34
  % Visual Injury: 23%
[10]; Event # 61, Line # 47
  % Visual Injury: 15%
[10]; Event # 61, Line # 49
  % Visual Injury: 9%
[10]; Event # 61, Line # 51
  % Visual Injury: 10%
[10]; Event # 61, Line # 60
  % Visual Injury: 16%
[10]; Event # 61, Line # 62
  % Visual Injury: 6%
[10]; Event # 61, Line # 99
  % Visual Injury: 10%
[10]; Event # 61, mean
  % Visual Injury: 20%
[10]; Event # 64, Line # 41
  % Visual Injury: 20%
[10]; Event # 64, Line # 47
  % Visual Injury: 10%
[10]; Event # 64, mean
  % Visual Injury: 14%
[11]; STS ®, Line # 25
  % Visual Injury: 100%
[11]; STS ®, Line # 46
  % Visual Injury: 100%
[11]; STS ®, mean
  % Visual Injury: 100%
[11]; Wild Type, Line # 82
  % Visual Injury: 100%
[11]; Wild Type, Line Jack
  % Visual Injury: 100%
[11]; Wild Type, mean
  % Visual Injury: 100%
[2]; glyphosate over the top at 4-6 leaf stage, 1.5 lb acid equivalent per acre, 2 weeks after application
  effect on untransformed Coker 312 control plants: dead
[3]; glyphosate over the top at 4-6 leaf stage, 1.5 lb acid equivalent per acre, 14 days after application
  GAT-HRA transgenic plants with no deleterious symptoms: approximately 50%
[7]; glyphosate on its own, 10-15 leaf stage, 200 L ha^-1
  plants killed: 1 out of 16 plants
[5]
  % Visual Injury Parent elite stiff stalk inbred: 100%
[5]; applied two weeks after planting, fresh shoots 2 weeks after treatment, untreated 76.4 g
  Fresh Weight (g) Parent elite stiff stalk inbred: 1.0 g
[6]
  % Visual Injury Heterozygous GAT-HRA: 10%
[6]; applied two weeks after planting, fresh shoots 2 weeks after treatment, untreated 98.8 g
  Fresh Weight (g) Heterozygous GAT-HRA: 97.4 g
[12]
  resistant callus initiation of infected embryos: some embryos initiated resistant callus
[13]; media with 1.0 and 2.0 mM glyphosate
  callus growth: very little callus growth
[13]; medium with 0.5 mM glyphosate
  embryos showing callus initiation: about half of the embryos

## O=C(O)CNCP(=O)(O)O [glyphosate (SCAT ®)]
[14]
  Control (%): 34%
[8]; Trial 1: glyphosate (SCAT) 0.5 L/ha
  Control (%): 94%
